Experimental data published in patent US20120077876A1, “Method For Improved Bioactivation Of Pharmaceuticals” (Dritte Patentportfolio Beteiligungsgesellschaft Mbh & Co. KG, priority 2009, published 2012).

How the values were obtained:
[1] = molecular target: T1, peptidylglycine α-amidating monooxygenase (PAM) (Rattus norvegicus, UniProt P14925); assay: PAM substrate kinetics (KM and Vmax) by HPLC; assay type: biochemical; details: for Vmax value: pH 6.0, 30 minutes incubation, n=2
T1 construct: purchased Unigene Laboratories, Inc. (New Jersey, USA)
T1 sequence (P14925 36-871 isoform P14925-2 limits assumed): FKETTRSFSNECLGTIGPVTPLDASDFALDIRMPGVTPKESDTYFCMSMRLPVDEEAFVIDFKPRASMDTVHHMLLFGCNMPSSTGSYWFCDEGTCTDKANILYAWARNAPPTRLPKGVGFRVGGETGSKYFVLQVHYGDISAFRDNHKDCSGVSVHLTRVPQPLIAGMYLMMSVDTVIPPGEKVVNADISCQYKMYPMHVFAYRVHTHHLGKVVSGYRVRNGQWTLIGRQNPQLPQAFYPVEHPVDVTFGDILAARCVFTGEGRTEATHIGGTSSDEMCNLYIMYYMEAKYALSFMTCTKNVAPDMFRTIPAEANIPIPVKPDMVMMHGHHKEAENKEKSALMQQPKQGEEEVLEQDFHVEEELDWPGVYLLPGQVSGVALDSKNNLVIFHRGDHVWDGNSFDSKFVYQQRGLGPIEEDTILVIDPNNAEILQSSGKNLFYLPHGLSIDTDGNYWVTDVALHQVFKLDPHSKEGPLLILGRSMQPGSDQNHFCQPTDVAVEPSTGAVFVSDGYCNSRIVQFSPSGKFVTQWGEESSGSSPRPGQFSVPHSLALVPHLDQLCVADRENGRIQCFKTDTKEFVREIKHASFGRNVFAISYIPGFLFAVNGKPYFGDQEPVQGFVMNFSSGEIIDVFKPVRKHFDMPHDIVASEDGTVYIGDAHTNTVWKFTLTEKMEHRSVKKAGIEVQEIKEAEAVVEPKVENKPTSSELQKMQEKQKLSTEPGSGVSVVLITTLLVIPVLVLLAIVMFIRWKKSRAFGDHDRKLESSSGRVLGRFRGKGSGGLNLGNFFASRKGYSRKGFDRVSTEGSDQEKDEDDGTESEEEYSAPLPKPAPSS
Method: (§1) The recombinant peptidylglycine α-amidating monooxygenase (PAM, rat, EC 1.14.17.3) that was used was provided by Unigene Laboratories, Inc. (New jersey, USA) (specific activity=5.8 10^6 U/mg protein); bovine liver catalase (EC 1.11.1.6), specific activity=12600 U/mg solid (Aldrich).
A typical incubation batch of 300 μl (total volume) contained 25000 U/ml peptidylglycine α-amidating monooxygenase (PAM, company: Unigene Laboratories), 250 U/ml catalase, 1 μM copper(II) (employed as acetate/monohydrate), 2 mM sodium ascorbate, 5 mM potassium iodide and the respective substrate in 0.1 mM or 1 mM concentration, in buffers having different pH values. The buffer system used was 30 mM MES for the incubation at pH 6.0 and 50 mM HEPES for the incubation at pH 7.4. The pH value was adjusted in each case with diluted sodium hydroxide. […] The remaining batch was incubated for another 180 minutes at 37° C. and stopped with 100 μl 10% TFA(aq)/acetonitrile (2:3).
(§2) The stopped samples were shaken for 5 minutes (vortexer) and frozen at −80° C. To analyze the samples, they were thawed, shaken for 5 minutes, and the precipitated protein was centrifuged at 10000 rpm. The supernatant was used for the colorimetric glyoxylate determination and/or HPLC measurement.
For the KM and Vmax determination, 100 μl batches were treated at pH 6.0 under the aforementioned conditions, however with the difference that the incubation time was 30 minutes.
HPLC Analysis for Separating O-carboxymethyl benzamidoxime (1) and benzamidoxime (2)
(§3) For the calibration, benzamidoxime was dissolved in eight concentrations of 0.1-500 μM, dissolved in assay buffer (30 mM MES, 1 μM copper(II) acetate, 2 mM sodium ascorbate, 5 mM potassium iodide, pH 6.0), and measured using the aforementioned HPLC method. […]
(§4) For the calibration, N-hydroxy-N′,N″-diphenyl guanidine (4) was dissolved in eight concentrations of 0.1-500 μM, dissolved in assay buffer (30 mM MES, […], 2 mM sodium ascorbate, 5 mM potassium iodide, pH 6.0), and measured using the aforementioned HPLC method.

cytochrome P450 (CYP450) [2] = assay: CYP450 substrate study, human liver microsomes and 9000 g supernatant; assay type: in vitro ADME; details: human liver enzyme sources, pH 6.0 and pH 7.4, NADH or NADPH, 60 or 180 minutes
Method: To obtain human microsomes, human liver tissue from cancer patients of the surgical department of the University Clinic of Christian-Albrecht University was obtained who had to undergo hemihepatectomy.
The liver tissue pieces were flash-frozen in a saccharose-containing phosphate buffer (10 mM K2HPO4, 10 mM KH2PO4, 250 mM saccharose, 1 mM Na2 EDTA, pH 7.4, 4° C.). As soon as a sufficient quantity of organ parts (>3) was available, the corresponding pieces were thawed and pooled so as to compensate for differences due to interindividual variations. The tissue pieces were cut into smaller parts at 4° C., washed several times with buffer solution (without EDTA), and processed into a suspension using a homogenizer. The microsomes and 9000 g supernatant were further obtained from this suspension by differential ultracentrifugation. For storage, the resulting preparations were aliquotted and frozen at −80° C.
A typical incubation bath of 500 μl (total volume) contained 0.3 mg protein (pork or human liver enzyme source), 0.1 mM (or 1 mM) test compound in 100 mM phosphate buffer (pH 6.0 or pH 7.4) and 1 mM NADH (or NADPH). The incubation was started after a 5-minute pre-incubation of the enzyme and test compound in buffer, adding NADH (or NADPH), and the product was shaken for 60 minutes or 180 minutes at 37° C. in the shaking water batch. […]

cytochrome P450 (CYP450) [3] = assay: CYP450 substrate study, porcine liver microsomes and 9000 g supernatant; assay type: in vitro ADME; details: pork liver enzyme sources, pH 6.0 and pH 7.4, NADH or NADPH, 60 or 180 minutes
Method: The pork livers were procured from a local butcher (Bordesholm) and the organs were transported directly after slaughter in an ice-cooled 20 mM phosphate buffer (1 mM Na2 EDTA, pH 7.4). For further processing, the liver lobes were first perfused with 50 mM phosphate buffer (1 mM Na2 EDTA, pH 7.4) and washed. The tissue was cut into pieces and run through a commercially available meat grinder. The suspension was diluted an equal volume of phosphate buffer and homogenized using a flow homogenizer. The microsomes and 9000 g supernatant were further obtained by differential ultracentrifugation. For storage, the resulting preparations were aliquotted and frozen at −80° C.
A typical incubation bath of 500 μl (total volume) contained 0.3 mg protein (pork or human liver enzyme source), 0.1 mM (or 1 mM) test compound in 100 mM phosphate buffer (pH 6.0 or pH 7.4) and 1 mM NADH (or NADPH). The incubation was started after a 5-minute pre-incubation of the enzyme and test compound in buffer, adding NADH (or NADPH), and the product was shaken for 60 minutes or 180 minutes at 37° C. in the shaking water batch. The batches were stopped by adding the same volume of acetonitrile, shaken using the vortexer, and frozen at −80° C.
To analyze the samples, they were thawed, shaken 5 minutes using the vortexer, and the protein was separated by means of 5-minute centrifugation at 10000 rpm. […]

[4] = molecular target: T1, peptidylglycine α-amidating monooxygenase (PAM); assay: PAM assay with colorimetric determination of glyoxylate formation; assay type: biochemical; details: for formation of glyoxylate as the cleavage product of the PAM catalysis: colorimetric assay, substrate 0.1 mM or 1 mM, pH 6.0 and pH 7.4, 37° C.
Method: as §1
A typical incubation batch of 300 μl (total volume) contained 25000 U/ml peptidylglycine α-amidating monooxygenase (PAM, company: Unigene Laboratories), 250 U/ml catalase, 1 μM copper(II) (employed as acetate/monohydrate), 2 mM sodium ascorbate, 5 mM potassium iodide and the respective substrate in 0.1 mM or 1 mM concentration, in buffers having different pH values. The buffer system used was 30 mM MES for the incubation at pH 6.0 and 50 mM HEPES for the incubation at pH 7.4. The pH value was adjusted in each case with diluted sodium hydroxide. The incubation was carried out at 37° C. in the shaking water bath for 60 minutes, 100 μl was withdrawn, and the reaction was stopped with 50 μl 10% TFA(aq)/acetonitrile (2:3). The remaining batch was incubated for another 180 minutes at 37° C. and stopped with 100 μl 10% TFA(aq)/acetonitrile (2:3).
as §2
200 μl of the incubation batch that was freed of protein was mixed with 20 μl of a phenylhydrazine solution (20 mg in 2 ml aqua bidest.) and shaken for 5 minutes in the shaking water bath at 37° C. […] The batch was allowed to rest for 15 minutes at room temperature and 200 μl was withdrawn for the measurement using a Plate Reader (Cary 50 UV-Vis photometer, 520 nm).
For a 5-point calibration, glyoxalic acid in concentrations of 2, 5, 10, 50 and 100 μM in a 2:1 mixture of assay buffer (pH 6.0):10% TFA(aq)/acetonitrile (2:3) was measured as described above. […]

[5] = substrate: N/C(=N\OCC(=O)O)c1ccccc1; assay: PAM substrate kinetics (KM and Vmax) by HPLC; assay type: biochemical, rat; details: other: pH 6.0, 30 minutes incubation, two independent experiments (n=2), 37.0 °C
Method: as §1
(§5) A typical incubation batch of 300 μl (total volume) contained 25000 U/ml peptidylglycine α-amidating monooxygenase (PAM, company: Unigene Laboratories), 250 U/ml catalase, 1 μM copper(II) (employed as acetate/monohydrate), 2 mM sodium ascorbate, 5 mM potassium iodide and the respective substrate in 0.1 mM or 1 mM concentration, in buffers having different pH values. The buffer system used was 30 mM MES for the incubation at pH 6.0 and 50 mM HEPES for the incubation at pH 7.4. The pH value was adjusted in each case with diluted sodium hydroxide. […]
as §3, §4

[6] = substrate: O=C(O)CON=C(Nc1ccccc1)Nc1ccccc1; assay: PAM substrate kinetics (KM and Vmax) by HPLC; assay type: biochemical, rat; details: other: pH 6.0, 30 minutes incubation, two independent experiments (n=2), 37.0 °C
Method: as §1, §5, §3, §4

Row | Molecule | Vmax value [1] | detection of O-dealkylated metabolite and its N-reduction product by HPLC (cytochrome P450 (CYP450) [2]) | detection of O-dealkylated metabolite and its N-reduction product by HPLC (cytochrome P450 (CYP450) [3]) | formation of glyoxylate as the cleavage product of the PAM catalysis [4] | conversion at the pH optimum of PAM (pH 6.0) in comparison with incubation at pH 7.4 ([4]; colorimetric glyoxylate determination, FIG. 1) | conversion rate in comparison with the amidoxime prodrug 1 ([1]; comparison of Vmax) | Km [5] | Km [6]
1 | N/C(=N\OCC(=O)O)c1ccccc1 [compound 1, O-carboxymethyl benzamidoxime] | 393±40 nmol min^−1 mg^−1 PAM | neither benzamidoxime possible prodrug of benzamidine) nor benzamidine were detected | neither benzamidoxime possible prodrug of benzamidine) nor benzamidine were detected | verified in an concentration-dependent manner | considerably higher conversions |  |  | 
2 | O=C(O)CON=C(Nc1ccccc1)Nc1ccccc1 [compound 3, N-carboxymethoxy-N′,N″-diphenyl guanidine] | 373 ± 53 nmol min⁻¹ mg⁻¹ PAM |  |  | comparable to those of the amidoxime model compound 1 |  | comparable |  | 
3 | peptidylglycine α-amidating monooxygenase (PAM) (Rattus norvegicus) (protein, purchased Unigene Laboratories, Inc. (New Jersey, USA)) FKETTRSFSNECLGTIGPVTPLDASDFALDIRMPGVTPKESDTYFCMSMRLPVDEEAFVIDFKPRASMDTVHHMLLFGCNMPSSTGSYWFCDEGTCTDKANILYAWARNAPPTRLPKGVGFRVGGETGSKYFVLQVHYGDISAFRDNHKDCSGVSVHLTRVPQPLIAGMYLMMSVDTVIPPGEKVVNADISCQYKMYPMHVFAYRVHTHHLGKVVSGYRVRNGQWTLIGRQNPQLPQAFYPVEHPVDVTFGDILAARCVFTGEGRTEATHIGGTSSDEMCNLYIMYYMEAKYALSFMTCTKNVAPDMFRTIPAEANIPIPVKPDMVMMHGHHKEAENKEKSALMQQPKQGEEEVLEQDFHVEEELDWPGVYLLPGQVSGVALDSKNNLVIFHRGDHVWDGNSFDSKFVYQQRGLGPIEEDTILVIDPNNAEILQSSGKNLFYLPHGLSIDTDGNYWVTDVALHQVFKLDPHSKEGPLLILGRSMQPGSDQNHFCQPTDVAVEPSTGAVFVSDGYCNSRIVQFSPSGKFVTQWGEESSGSSPRPGQFSVPHSLALVPHLDQLCVADRENGRIQCFKTDTKEFVREIKHASFGRNVFAISYIPGFLFAVNGKPYFGDQEPVQGFVMNFSSGEIIDVFKPVRKHFDMPHDIVASEDGTVYIGDAHTNTVWKFTLTEKMEHRSVKKAGIEVQEIKEAEAVVEPKVENKPTSSELQKMQEKQKLSTEPGSGVSVVLITTLLVIPVLVLLAIVMFIRWKKSRAFGDHDRKLESSSGRVLGRFRGKGSGGLNLGNFFASRKGYSRKGFDRVSTEGSDQEKDEDDGTESEEEYSAPLPKPAPSS |  |  |  |  |  |  | 307 ± 80 µM | 37 ± 5 µM
